Patent US8445684B2, “Nicotinic acetylcholine receptor ligands and the uses thereof” (PsycoGenics Inc., priority 2008, dated 2013)
Values joined by “and” are separate entries in the source; they are usually repeats but may differ in a detail not shown here. Equal entries are not always repeated. Marks after values point to notes of the source that are not given here.

Experiments:
α4β4 nicotinic receptor = biological target: T1, α4β4 nicotinic receptor (Rattus norvegicus, UniProt P09483+P12392); assay: biochemical; format: binding
T1 construct: expressed in transfected cells; host or cells: stably transfected cell lines (e.g., HEK293, COS, CHO, NIH3T3)
T1 sequence (P09483 31-630): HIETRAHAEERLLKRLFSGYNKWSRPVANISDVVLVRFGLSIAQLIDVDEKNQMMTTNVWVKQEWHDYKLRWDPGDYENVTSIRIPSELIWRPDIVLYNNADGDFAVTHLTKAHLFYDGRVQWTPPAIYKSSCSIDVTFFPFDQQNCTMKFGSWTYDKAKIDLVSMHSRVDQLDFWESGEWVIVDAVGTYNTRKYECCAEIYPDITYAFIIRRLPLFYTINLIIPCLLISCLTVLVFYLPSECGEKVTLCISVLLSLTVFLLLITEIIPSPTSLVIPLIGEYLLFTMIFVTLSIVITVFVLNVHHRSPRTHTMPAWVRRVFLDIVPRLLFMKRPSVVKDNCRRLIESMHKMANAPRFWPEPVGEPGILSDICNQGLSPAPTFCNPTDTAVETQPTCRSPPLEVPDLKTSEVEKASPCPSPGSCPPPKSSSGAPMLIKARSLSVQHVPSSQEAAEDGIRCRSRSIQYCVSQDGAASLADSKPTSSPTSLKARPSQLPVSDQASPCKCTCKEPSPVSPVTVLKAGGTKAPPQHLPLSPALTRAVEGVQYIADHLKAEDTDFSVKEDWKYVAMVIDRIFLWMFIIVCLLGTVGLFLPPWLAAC
T1 sequence (P12392 21-495): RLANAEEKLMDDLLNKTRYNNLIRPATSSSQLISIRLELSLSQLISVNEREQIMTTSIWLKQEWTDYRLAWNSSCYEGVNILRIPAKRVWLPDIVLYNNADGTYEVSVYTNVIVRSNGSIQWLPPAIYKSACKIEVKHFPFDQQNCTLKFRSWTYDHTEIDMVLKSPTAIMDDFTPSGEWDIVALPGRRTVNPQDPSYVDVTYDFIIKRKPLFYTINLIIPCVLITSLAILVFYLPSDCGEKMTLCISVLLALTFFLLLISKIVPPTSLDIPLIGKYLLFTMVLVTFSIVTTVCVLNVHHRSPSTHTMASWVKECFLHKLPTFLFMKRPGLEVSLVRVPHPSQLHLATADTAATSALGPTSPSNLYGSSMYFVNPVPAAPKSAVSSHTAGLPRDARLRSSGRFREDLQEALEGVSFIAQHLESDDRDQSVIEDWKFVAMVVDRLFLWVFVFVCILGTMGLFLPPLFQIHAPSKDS
Description: (§1) All binding assays were performed according to procedures set forth in the University of North Carolina at Chapel Hill National Institute of Mental Health Psychoactive Drug Screening Program Assay Protocol Book (pp. 50-54; PI: Bryan L. Roth MD, PhD).
(§2) Nicotinic receptors: α2β2, α2β4, α3β2, α3β4, α4β2, α4β4, endogenous α4β2. Assay buffer: 50 mM Tris-HCl, pH 7.4. Membrane fraction source: Stably transfected cell lines (e.g., HEK293, COS, CHO, NIH3T3) (α2β2, α2β4, α3β2, α3β4, α4β2, α4β4) or rat forebrain (α4β2).
(§3) Aliquots (50 μl) of radioligand were dispensed into the wells of a 96-well plate containing 100 μl of assay buffer. Then, duplicate 50-μl aliquots of the test and reference compound dilutions were added.
(§4) Finally, crude membrane fractions of cells expressing recombinant target (prepared from 10-cm plates by harvesting PBS-rinsed monolayers, resuspending and lysing in chilled, hypotonic 50 mM Tris-HCl, pH 7.4, centrifuging at 20,000×g, decanting the supernatant and storing at −80° C.; typically, one 10-cm plate provides sufficient material for 24 wells) were resuspended in 3 ml of chilled assay buffer and homogenized by several passages through a 26 gauge needle, then 50 μl were dispensed into each well.
(§5) The 250-μl reactions were incubated at room temperature and shielded from light (to prevent photolysis of light-sensitive ligands) for 4 hours, then harvested by rapid filtration onto Whatman GF/B glass fiber filters pre-soaked with 0.5% polyethyleneimine using a 96-well Brandel harvester. Four rapid 500-μl washes were performed with chilled Standard Binding Buffer to reduce non-specific binding. Filters were placed in 6-ml scintillation tubes and allowed to dry overnight. The next day, 4 ml of EcoScint scintillation cocktail (National Diagnostics) were added to each tube. The tubes were capped, labeled, and counted by liquid scintillation counting.
(§6) Raw data (dpm) representing total radioligand binding (i.e., specific+non-specific binding) were plotted as a function of the logarithm of the molar concentration of the competitor (i.e., test or reference compound).

[1] = biological target: T2, α4β2* (endogenous α4β2, rat forebrain) (Rattus norvegicus, UniProt P09483+P12390); assay: biochemical; format: binding
T2 construct: from tissue; host or cells: rat forebrain
T2 sequence (P09483 31-630): as the sequence (P09483 31-630) above
T2 sequence (P12390 25-500): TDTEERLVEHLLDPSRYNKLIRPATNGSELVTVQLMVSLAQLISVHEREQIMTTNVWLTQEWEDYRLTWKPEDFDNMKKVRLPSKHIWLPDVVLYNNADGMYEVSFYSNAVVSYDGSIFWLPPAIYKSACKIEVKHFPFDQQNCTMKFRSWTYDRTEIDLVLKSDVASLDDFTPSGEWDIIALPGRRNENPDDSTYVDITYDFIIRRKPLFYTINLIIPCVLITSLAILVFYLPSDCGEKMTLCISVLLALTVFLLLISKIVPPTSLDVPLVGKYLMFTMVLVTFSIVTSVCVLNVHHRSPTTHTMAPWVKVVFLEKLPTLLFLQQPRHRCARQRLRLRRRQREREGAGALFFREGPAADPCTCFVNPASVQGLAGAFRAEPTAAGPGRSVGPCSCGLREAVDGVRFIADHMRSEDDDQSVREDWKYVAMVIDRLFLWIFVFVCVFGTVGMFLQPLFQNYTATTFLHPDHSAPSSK
Description: as §1, §2, §3, §4, §5, §6

α2β2 nicotinic receptor = biological target: T3, α2β2 nicotinic receptor (Rattus norvegicus, UniProt P12389+P12390); assay: biochemical; format: binding
T3 construct: expressed in transfected cells; host or cells: stably transfected cell lines (e.g., HEK293, COS, CHO, NIH3T3)
T3 sequence (P12390 25-500): as above
T3 sequence (P12389 28-511): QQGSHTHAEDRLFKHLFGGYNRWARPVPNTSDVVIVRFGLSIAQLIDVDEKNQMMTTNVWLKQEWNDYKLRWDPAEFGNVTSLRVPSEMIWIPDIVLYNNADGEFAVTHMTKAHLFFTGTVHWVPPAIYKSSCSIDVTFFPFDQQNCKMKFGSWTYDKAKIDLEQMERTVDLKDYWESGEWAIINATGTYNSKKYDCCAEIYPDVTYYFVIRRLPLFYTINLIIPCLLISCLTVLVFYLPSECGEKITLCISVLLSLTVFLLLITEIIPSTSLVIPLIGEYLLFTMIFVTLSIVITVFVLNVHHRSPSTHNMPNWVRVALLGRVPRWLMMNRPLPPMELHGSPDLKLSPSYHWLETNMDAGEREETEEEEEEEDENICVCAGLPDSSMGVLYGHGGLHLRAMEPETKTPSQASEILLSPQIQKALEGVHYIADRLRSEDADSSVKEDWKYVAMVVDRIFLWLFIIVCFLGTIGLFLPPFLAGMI
Description: as §1, §2, §3, §4, §5, §6

α2β4 nicotinic receptor = biological target: T4, α2β4 nicotinic receptor (Rattus norvegicus, UniProt P12389+P12392); assay: biochemical; format: binding
T4 construct: expressed in transfected cells; host or cells: stably transfected cell lines (e.g., HEK293, COS, CHO, NIH3T3)
T4 sequence (P12392 21-495): as the sequence (P12392 21-495) above
T4 sequence (P12389 28-511): as the sequence (P12389 28-511) above
Description: as §1, §2, §3, §4, §5, §6

α4β2 nicotinic receptor = biological target: T5, α4β2 nicotinic receptor (Rattus norvegicus, UniProt P09483+P12390); assay: biochemical; format: binding
T5 construct: expressed in transfected cells; host or cells: stably transfected cell lines (e.g., HEK293, COS, CHO, NIH3T3)
T5 sequence (P09483 31-630): as the sequence (P09483 31-630) above
T5 sequence (P12390 25-500): as the sequence (P12390 25-500) above
Description: as §1, §2, §3, §4, §5, §6

α3β2 nicotinic receptor = biological target: T6, α3β2 nicotinic receptor (Rattus norvegicus, UniProt P04757+P12390); assay: biochemical; format: binding
T6 construct: expressed in transfected cells; host or cells: stably transfected cell lines (e.g., HEK293, COS, CHO, NIH3T3)
T6 sequence (P12390 25-500): as above
T6 sequence (P04757 26-499): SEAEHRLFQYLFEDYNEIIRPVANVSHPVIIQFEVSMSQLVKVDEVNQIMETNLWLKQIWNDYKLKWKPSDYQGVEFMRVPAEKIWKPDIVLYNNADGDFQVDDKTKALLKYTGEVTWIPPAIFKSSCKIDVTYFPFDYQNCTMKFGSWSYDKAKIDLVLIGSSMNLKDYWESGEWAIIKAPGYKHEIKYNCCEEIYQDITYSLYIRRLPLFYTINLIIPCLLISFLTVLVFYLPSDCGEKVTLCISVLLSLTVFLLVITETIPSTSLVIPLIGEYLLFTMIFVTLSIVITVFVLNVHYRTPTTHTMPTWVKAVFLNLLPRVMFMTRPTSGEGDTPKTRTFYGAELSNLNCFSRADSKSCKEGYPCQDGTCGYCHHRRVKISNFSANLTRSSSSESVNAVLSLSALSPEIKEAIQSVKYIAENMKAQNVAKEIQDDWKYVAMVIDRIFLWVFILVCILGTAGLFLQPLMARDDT
Description: as §1, §2, §3, §4, §5, §6

α3β4 nicotinic receptor = biological target: T7, α3β4 nicotinic receptor (Rattus norvegicus, UniProt P04757+P12392); assay: biochemical; format: binding
T7 construct: expressed in transfected cells; host or cells: stably transfected cell lines (e.g., HEK293, COS, CHO, NIH3T3)
T7 sequence (P04757 26-499): as above
T7 sequence (P12392 21-495): as the sequence (P12392 21-495) above
Description: as §1, §2, §3, §4, §5, §6

male Balb/cJ mice = assay: Forced swim test in mice; format: in vivo
Description: Subjects. The subjects were male Balb/cJ mice obtained from Jackson Laboratory, Bar Harbor, Me. Mice were housed 4 per cage under controlled conditions of temperature, relative humidity and light-dark cycle with free access to food and water.
Procedures. […] Mice were individually placed into clear glass cylinders (i.e., 15 cm tall×10 cm wide, 1 L beakers) containing 23±1° C. water 12 cm deep (approximately 800 mL). The time the animal spent immobile was recorded over a 6 min trial. Immobility was described as the postural position of floating in the water.
Drugs. […] The mice were injected intraperitoneally (i.p.) 30 minutes before the start of the test. In another set of experiments, the test compounds were administered orally (p.o.) 30 minutes before the start of the test.
Statistics. The length of time spent floating was analyzed by Analysis of Variance (ANOVA) with dose of drug as the between-subject factor and time spent immobile across the 6 min test as the dependent variable. Post-hoc comparisons between the treatment groups and control group were made using Fisher's PLSD test. A significance level of 5% was used throughout.

| SMILES | Ki [1] [nM] | Ki (α2β2 nicotinic receptor) [nM] | Ki (α2β4 nicotinic receptor) [nM] | Ki (α4β2 nicotinic receptor) [nM] | Ki (α3β2 nicotinic receptor) [nM] | effect in the forced swim test as indicated by a reduction in immobility time (male Balb/cJ mice; mouse, in vivo, ip) | also measured |
| --- | --- | --- | --- | --- | --- | --- | --- |
| OCCCC[C@H]1C[C@@H]1c1cncc(OC[C@@H]2CCN2)c1 | 1.4 | 0.6 | 120 | 0.5 | 6.5 | – | Ki (α4β4 nicotinic receptor): 240 nM |
| FCC[C@H]1C[C@@H]1c1cncc(OC[C@@H]2CCN2)c1 | 11 | 6.4 | 660 | 1 | 34 | – | Ki (α4β4 nicotinic receptor): 1300 nM; Ki (α3β4 nicotinic receptor): > 10000 nM |
| OCCCCC#Cc1cncc(OC[C@@H]2CCN2)c1 [AMOP-H-OH, reference compound] | – | – | – | – | – | positive effects | – |
| OCC[C@H]1C[C@@H]1c1cncc(OC[C@@H]2CCN2)c1 [Example 2, 2-[(1R,2S)-2-[5-[(2(S)-Azetidinyl)methoxy]-3-pyridyl]cyclopropyl]ethanol] | – | – | – | – | – | positive effects | – |
| OCCCc1cccc(-c2cncc(OC[C@@H]3CCN3)c2)c1 [Example 15c, 3-[3-[5-[(2(S)-Azetidinyl)methoxy]-3-pyridyl]phenyl]-1-propanol] | – | – | – | – | – | positive effects | reduction in immobility time compared to vehicle (male Balb/cJ mice; mouse, in vivo): 24.5 s; Average Immobility Time (male Balb/cJ mice; mouse, in vivo, ip, 5 mg/kg): 110.6 s; Average Immobility Time (male Balb/cJ mice; mouse, in vivo, ip, 10 mg/kg): 105.1** seconds and 85.3** seconds; Average Immobility Time (male Balb/cJ mice; mouse, in vivo, ip, 20 mg/kg): 49.7** seconds |
| CN[C@H]1CC[C@@H](c2ccc(Cl)c(Cl)c2)c2ccccc21 [Sertraline, sertraline, reference compound] | – | – | – | – | – | – | Average Immobility Time (male Balb/cJ mice; Table 2, 20 mg/kg i.p., 30 min before test, 6 min trial, vehicle 126.3, ** = significantly different from vehicle): 11.9** seconds |
| OCC[C@H]1C[C@@H]1c1cncc(OC[C@@H]2CCN2)c1 [drawing 715] | 1.2 | 0.9 | 62 | 0.3 | 5.1 | – | Ki (α3β4 nicotinic receptor): 640 nM |
